The data set deals with chicken Red Blood cells (RBC). The data set is described as follows: QS21 lytic activity, haemolysis assay (limit test). To be noted: example QS21 curve, 150 mM sodium chloride buffer; OD 0.12. The format is cell-based. On the procedure: QS21 is known to lyse red blood cells (RBC).
QS21 lytic activity was measured by a haemolysis assay using chicken Red Blood cells (RBC). RBC were centrifuged at 550 g at 4° C. Supernatant was discarded. The pellet was carefully resuspended in PBS buffer to reach the initial volume and the same operation was repeated until supernatant was no longer red (generally 3 times). The pellet was stored at 4° C. for 3 to 4 days maximum if not used directly (and washed again the day it is used) or was diluted around 10 times in buffer if used the same day.
A QS21 dose range curve was prepared in ASA buffer (in salt or in sorbitol buffer following the ASA sample tested) extemporaneously and the adjuvant samples (containing a 50 μg or 90 μg equivalent of QS21 meaning the equivalent of 500 μl or 900 μl ASA) were prepared. Final volume was adjusted to 900 μl in standards and samples with adequate buffer (containing or not sorbitol as a function of the buffer of the sample tested). Due to its opalescence, ASA interferes in optical density (OD). […] Optical density at 540 nm was measured after centrifugation. […]
1. Limit of detection (LOD) was defined as the lowest concentration of QS21 leading to an OD: • Higher than the base level (OD>0.1) • Around three times higher than OD's buffer (the “o μg” QS21) • In the ascendant part of the curve • Determined for each test. […]

For the substance QS21, the “Limit of Detection (lowest QS21 amount giving lytic OD)” value was 0.9 µg.
